Here are results for 34 compounds from ChEMBL document CHEMBL1140258, “Synthesis and structure-activity relationships of biarylcarboxamide bis-aminopyrrolidine urea derived small-molecule antagonists of the melanin-concentrating hormone receptor-1 (MCH-R1)” (Bioorg Med Chem Lett, 2005).

As a reminder, the Ki is the dissociation constant of the complex between target and ligand, obtained from inhibition or displacement. A low value points to higher affinity.

Each structure is given as a SMILES string.

Chain of Melanin-concentrating hormone receptor 1 (Q99705 whole entry): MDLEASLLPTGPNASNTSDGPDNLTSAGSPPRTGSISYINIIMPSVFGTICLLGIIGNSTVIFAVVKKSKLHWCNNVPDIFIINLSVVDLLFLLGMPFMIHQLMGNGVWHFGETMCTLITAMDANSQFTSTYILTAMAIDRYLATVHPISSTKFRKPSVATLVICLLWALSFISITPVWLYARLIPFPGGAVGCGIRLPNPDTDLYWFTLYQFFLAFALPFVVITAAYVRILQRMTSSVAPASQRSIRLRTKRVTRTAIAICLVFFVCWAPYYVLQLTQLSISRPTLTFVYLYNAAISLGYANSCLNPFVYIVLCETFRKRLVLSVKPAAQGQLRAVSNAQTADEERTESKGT

This experiment concerns the target Melanin-concentrating hormone receptor 1 (Homo sapiens, UniProt Q99705). Kind of experiment: biochemical. Format: cell-based, HEK293.
Description: Binding affinity towards the human MCH-R1 receptor by displacing [125I]Tyr13]-MCH radioligand in HEK293 cells, Data is average of 3 or more independent measurements
As for `CCOc1ccc(-c2ccc(C(=O)N(C)[C@H]3CCN(C(=O)N(C)[C@@H]4CCN(C)C4)C3)s2)cc1`, the Ki was determined as 0.063 µM.

In turn, `Cc1cc(Cl)ccc1-c1ccc(C(=O)N(C)[C@H]2CCN(C(=O)N(C)[C@@H]3CCN(C)C3)C2)s1` yielded a Ki of 0.003 µM. For the compound `CN1CC[C@@H](N(C)C(=O)N2CC[C@H](N(C)C(=O)c3ccc(-c4ccc(Cl)cc4Cl)s3)C2)C1`, the Ki is 0.003 µM. The value for `CN1CC[C@@H](N(C)C(=O)N2CC[C@H](N(C)C(=O)c3ccc(-c4ccc(Cl)cc4)cc3)C2)C1` was 0.002 µM; that for `CN1CC[C@@H](N(C)C(=O)N2CC[C@H](N(C)C(=O)c3ccc(-c4ccc(C#N)cc4)s3)C2)C1` was 2.4 µM; that for `COc1cccc(-c2ccc(C(=O)N(C)[C@H]3CCN(C(=O)N(C)[C@@H]4CCN(C)C4)C3)s2)c1` was 0.9 µM. The value for `CN1CC[C@@H](N(C)C(=O)N2CC[C@H](N(C)C(=O)c3ccc(-c4ccc(S(C)(=O)=O)cc4)s3)C2)C1` was 6 µM; that for `CN1CC[C@@H](N(C)C(=O)N2CC[C@@H](N(C)C(=O)c3ccc(-c4ccc(C(F)(F)F)cc4)s3)C2)C1` was 0.15 µM; that for `COc1ccc(-c2ccc(C(=O)N(C)[C@H]3CCN(C(=O)N(C)[C@@H]4CCN(C)C4)C3)cc2)cc1` was 0.005 µM. The value for `CN1CC[C@@H](N(C)C(=O)N2CC[C@H](N(C)C(=O)c3ccc(-c4ccc(N(C)C)cc4)s3)C2)C1` was 0.007 µM; that for `CCc1ccc(-c2ccc(C(=O)N(C)[C@H]3CCN(C(=O)N(C)[C@@H]4CCN(C)C4)C3)s2)cc1` was 0.001 µM.

For the compound `CN1CC[C@@H](N(C)C(=O)N2CC[C@H](N(C)C(=O)c3ccc(-c4ccccc4Cl)s3)C2)C1`, the Ki was 0.01 µM. Against the preceding compound, the Ki is about 10-fold higher.

Turning to `Cc1ccc(-c2ccc(C(=O)N(C)[C@H]3CCN(C(=O)N(C)[C@@H]4CCN(C)C4)C3)s2)c(Cl)c1`, the Ki was found to be 0.001 µM. The value for `CN1CC[C@@H](N(C)C(=O)N2CC[C@H](N(C)C(=O)c3ccc(-c4cccc(C(F)(F)F)c4)s3)C2)C1` was 1.8 µM; that for `CN1CC[C@@H](N(C)C(=O)N2CC[C@H](N(C)C(=O)c3ccc(-c4ccc(Cl)cc4)s3)C2)C1` was 0.002 µM. With `CN1CC[C@@H](N(C)C(=O)N2CC[C@H](N(C)C(=O)c3ccc(-c4ccc(OC(F)(F)F)cc4)s3)C2)C1` the figure was 0.004 µM; with `CN1CC[C@@H](N(C)C(=O)N2CC[C@H](N(C)C(=O)c3ccc(-c4ccc(C(F)(F)F)cc4)s3)C2)C1`, 0.002 µM; with `CC(C)c1ccc(-c2ccc(C(=O)N(C)[C@H]3CCN(C(=O)N(C)[C@@H]4CCN(C)C4)C3)s2)cc1`, 0.005 µM.

In turn, `CN1CC[C@@H](N(C)C(=O)N2CC[C@H](N(C)C(=O)c3ccc(-c4cccc(Cl)c4)s3)C2)C1` showed a Ki of 0.32 µM. With `COc1ccc(-c2ccc(C(=O)N(C)[C@H]3CCN(C(=O)N(C)[C@@H]4CCN(C)C4)C3)s2)c(C)c1` the figure was 0.003 µM; with `COc1ccc(-c2ccc(C(=O)N(C)[C@H]3CCN(C(=O)N(C)[C@@H]4CCN(C)C4)C3)s2)cc1`, 0.004 µM; with `COc1ccccc1-c1ccc(C(=O)N(C)[C@H]2CCN(C(=O)N(C)[C@@H]3CCN(C)C3)C2)s1`, 3.4 µM. With `CC(C)Oc1ccc(-c2ccc(C(=O)N(C)[C@H]3CCN(C(=O)N(C)[C@@H]4CCN(C)C4)C3)s2)cc1` the figure was 3.3 µM; with `CN1CC[C@H](N(C)C(=O)N2CC[C@H](N(C)C(=O)c3ccc(-c4ccc(C(F)(F)F)cc4)s3)C2)C1`, 0.014 µM; with `CCOc1ccc(-c2ccc(C(=O)N(C)[C@H]3CCN(C(=O)N(C)[C@@H]4CCN(C)C4)C3)s2)c(Cl)c1`, 0.002 µM. The value for `CN1CC[C@@H](N(C)C(=O)N2CC[C@H](N(C)C(=O)c3ccc(-c4ccc(O)cc4)s3)C2)C1` was above 10 µM.

For the compound `CN1CC[C@@H](N(C)C(=O)N2CC[C@H](N(C)C(=O)c3ccc(-c4ccc(F)cc4)s3)C2)C1`, the Ki was determined as 0.037 µM. The value for `Cc1cccc(C)c1-c1ccc(C(=O)N(C)[C@H]2CCN(C(=O)N(C)[C@@H]3CCN(C)C3)C2)s1` was 0.31 µM; that for `Cc1ccc(-c2ccc(C(=O)N(C)[C@H]3CCN(C(=O)N(C)[C@@H]4CCN(C)C4)C3)s2)cc1` was 0.003 µM; that for `Cc1ccc(-c2ccc(C(=O)N(C)[C@H]3CCN(C(=O)N(C)[C@@H]4CCN(C)C4)C3)s2)c(C)c1` was 0.003 µM. For the compound `CN1CC[C@@H](N(C)C(=O)N2CC[C@H](N(C)C(=O)c3ccc(-c4ccccc4C(F)(F)F)s3)C2)C1`, the Ki came to 0.061 µM. The value for `Cc1ccccc1-c1ccc(C(=O)N(C)[C@H]2CCN(C(=O)N(C)[C@@H]3CCN(C)C3)C2)s1` was 0.019 µM. The value for `CN1CC[C@H](N(C)C(=O)N2CC[C@@H](N(C)C(=O)c3ccc(-c4ccc(C(F)(F)F)cc4)s3)C2)C1` was 0.19 µM; that for `COc1ccc(-c2ccc(C(=O)N(C)[C@H]3CCN(C(=O)N(C)[C@@H]4CCN(C)C4)C3)cc2)c(C)c1` was 0.016 µM.
